Test results taken from the NIST ThermoML archive (doi:10.1021/je900404r).

Key:
[1] = xn = mol fraction of the nth substance listed; details: 101 kPa, Liquid, Vibrating tube method
[2] = 101 kPa, Liquid, Vibrating tube method

O=C1CCCCC1 [cyclohexanone] + CCCCCl
[1], x2 = 0
Details | mass density [kg/m3]
288.15 K | 951.69
298.15 K | 942.76
308.15 K | 933.8
318.15 K | 924.82

ClCCCl [1,2-dichloroethane] + O=C1CCCCC1
mass density [kg/m3], [1]
Details | x1 = 0.1142 | x1 = 0.2318 | x1 = 0.3197 | x1 = 0.4227 | x1 = 0.519 | x1 = 0.6155 | x1 = 0.7061 | x1 = 0.8134 | x1 = 0.9145 | x1 = 1
288.15 K | 978.81 | 1008.61 | 1032.1 | 1061.02 | 1089.5 | 1119.7 | 1149.67 | 1187.43 | 1225.5 | 1260.01
298.15 K | 969.5 | 998.88 | 1022 | 1050.47 | 1078.46 | 1108.12 | 1137.52 | 1174.53 | 1211.76 | 1245.48
308.15 K | 960.16 | 989.1 | 1011.86 | 1039.86 | 1067.36 | 1096.48 | 1125.3 | 1161.53 | 1197.92 | 1230.83
318.15 K | 950.78 | 979.28 | 1001.67 | 1029.19 | 1056.19 | 1084.75 | 1112.98 | 1148.42 | 1183.96 | 1216.04

CCCCCl [1-chlorobutane] + O=C1CCCCC1
mass density [kg/m3], [1]
Details | x1 = 0.1152 | x1 = 0.2084 | x1 = 0.3068 | x1 = 0.4067 | x1 = 0.5041 | x1 = 0.5841 | x1 = 0.692 | x1 = 0.7881 | x1 = 0.882 | x1 = 1
288.15 K | 945.58 | 940.43 | 934.95 | 929.27 | 923.6 | 918.86 | 912.28 | 906.18 | 900.11 | 892.1
298.15 K | 936.47 | 931.18 | 925.51 | 919.65 | 913.78 | 908.86 | 902.02 | 895.71 | 889.37 | 881.05
308.15 K | 927.34 | 921.88 | 916.03 | 909.97 | 903.89 | 898.78 | 891.68 | 885.12 | 878.54 | 869.86
318.15 K | 918.17 | 912.54 | 906.5 | 900.22 | 893.92 | 888.63 | 881.25 | 874.42 | 867.57 | 858.52

O=C1CCCCC1 [cyclohexanone]
[2]
Details | mass density [kg/m3]
288.15 K | 951.69
298.15 K | 942.76
308.15 K | 933.8
318.15 K | 924.82

O=C1CCCCC1 [cyclohexanone] + ClC(Cl)C(Cl)Cl
[1], x2 = 0
Details | mass density [kg/m3]
288.15 K | 951.69
298.15 K | 942.76
308.15 K | 933.8
318.15 K | 924.82

O=C1CCCCC1 [cyclohexanone] + ClCCCl
[1], x2 = 0
Details | mass density [kg/m3]
288.15 K | 951.69
298.15 K | 942.76
308.15 K | 933.8
318.15 K | 924.82

ClC(Cl)C(Cl)Cl [1,1,2,2-tetrachloroethane]
[2]
Details | mass density [kg/m3]
288.15 K | 1604.75
298.15 K | 1589.18
308.15 K | 1573.57
318.15 K | 1557.94

O=C1CCCCC1 [cyclohexanone] + ClCCCCl
[1], x2 = 0
Details | mass density [kg/m3]
288.15 K | 951.69
298.15 K | 942.76
308.15 K | 933.8
318.15 K | 924.82

CC(Cl)(Cl)Cl [1,1,1-trichloroethane] + O=C1CCCCC1
mass density [kg/m3], [1]
Details | x1 = 0.1151 | x1 = 0.2288 | x1 = 0.3155 | x1 = 0.4163 | x1 = 0.5167 | x1 = 0.6059 | x1 = 0.7081 | x1 = 0.8062 | x1 = 0.8979 | x1 = 1
288.15 K | 996.74 | 1041.75 | 1076.19 | 1116.3 | 1156.17 | 1191.52 | 1231.85 | 1270.3 | 1305.81 | 1344.95
298.15 K | 987.13 | 1031.43 | 1065.28 | 1104.68 | 1143.81 | 1178.45 | 1217.94 | 1255.52 | 1290.16 | 1328.27
308.15 K | 977.49 | 1021.06 | 1054.33 | 1093.01 | 1131.39 | 1165.33 | 1203.95 | 1240.64 | 1274.41 | 1311.45
318.15 K | 967.81 | 1010.65 | 1043.33 | 1081.28 | 1118.9 | 1152.12 | 1189.86 | 1225.64 | 1258.51 | 1294.47

ClC(Cl)C(Cl)Cl [1,1,2,2-tetrachloroethane] + O=C1CCCCC1
mass density [kg/m3], [1]
Details | x1 = 0.1147 | x1 = 0.2121 | x1 = 0.3045 | x1 = 0.4052 | x1 = 0.4996 | x1 = 0.5909 | x1 = 0.6868 | x1 = 0.782 | x1 = 0.8798 | x1 = 1
288.15 K | 1029.34 | 1094.87 | 1156.78 | 1223.8 | 1286.07 | 1345.8 | 1407.73 | 1468.5 | 1530.11 | 1604.75
298.15 K | 1019.79 | 1084.77 | 1146.13 | 1212.52 | 1274.18 | 1333.31 | 1394.58 | 1454.64 | 1515.52 | 1589.18
308.15 K | 1010.2 | 1074.62 | 1135.43 | 1201.2 | 1262.26 | 1320.77 | 1381.38 | 1440.76 | 1500.89 | 1573.57
318.15 K | 1000.58 | 1064.44 | 1124.7 | 1189.84 | 1250.3 | 1308.2 | 1368.14 | 1426.83 | 1486.23 | 1557.94

O=C1CCCCC1 [cyclohexanone] + ClC(Cl)Cl
[1], x2 = 0
Details | mass density [kg/m3]
288.15 K | 951.69
298.15 K | 942.76
308.15 K | 933.8
318.15 K | 924.82

ClC(Cl)Cl [trichloromethane] + O=C1CCCCC1
mass density [kg/m3], [1]
Details | x1 = 0.1198 | x1 = 0.2362 | x1 = 0.305 | x1 = 0.4235 | x1 = 0.5103 | x1 = 0.6047 | x1 = 0.6953 | x1 = 0.8109 | x1 = 0.9089 | x1 = 1
288.15 K | 1004.15 | 1058.19 | 1091.64 | 1151.88 | 1198.22 | 1250.45 | 1303.06 | 1372.1 | 1433.35 | 1491.86
298.15 K | 994.58 | 1047.93 | 1080.94 | 1140.29 | 1185.89 | 1237.16 | 1288.8 | 1356.3 | 1416.12 | 1473.16
308.15 K | 984.97 | 1037.61 | 1070.16 | 1128.62 | 1173.48 | 1223.78 | 1274.42 | 1340.36 | 1398.68 | 1454.07
318.15 K | 975.32 | 1027.25 | 1059.32 | 1116.88 | 1160.97 | 1210.28 | 1259.9 | 1324.23 | 1381.01 | 1434.72

ClCCCCl [1,3-dichloropropane] + O=C1CCCCC1
mass density [kg/m3], [1]
Details | x1 = 0.1276 | x1 = 0.227 | x1 = 0.3268 | x1 = 0.4189 | x1 = 0.514 | x1 = 0.6112 | x1 = 0.7147 | x1 = 0.8103 | x1 = 0.8979 | x1 = 1
288.15 K | 979.76 | 1001.99 | 1024.79 | 1046.27 | 1068.86 | 1092.38 | 1118.03 | 1142.26 | 1164.89 | 1191.93
298.15 K | 970.5 | 992.46 | 1014.95 | 1036.15 | 1058.41 | 1081.63 | 1106.86 | 1130.71 | 1152.99 | 1179.58
308.15 K | 961.22 | 982.9 | 1005.09 | 1025.99 | 1047.94 | 1070.82 | 1095.64 | 1119.11 | 1141.03 | 1167.16
318.15 K | 951.9 | 973.3 | 995.19 | 1015.78 | 1037.41 | 1059.94 | 1084.36 | 1107.45 | 1128.99 | 1154.67

ClCCCCCl [1,4-dichlorobutane]
[2]
Details | mass density [kg/m3]
288.15 K | 1143.49
298.15 K | 1132.57
308.15 K | 1121.61
318.15 K | 1110.61

CCCCCl [1-chlorobutane]
[2]
Details | mass density [kg/m3]
288.15 K | 892.1
298.15 K | 881.05
308.15 K | 869.86
318.15 K | 858.52

ClCCCl [1,2-dichloroethane]
[2]
Details | mass density [kg/m3]
288.15 K | 1260.01
298.15 K | 1245.48
308.15 K | 1230.83
318.15 K | 1216.04

CC(Cl)(Cl)Cl [1,1,1-trichloroethane]
[2]
Details | mass density [kg/m3]
288.15 K | 1344.95
298.15 K | 1328.27
308.15 K | 1311.45
318.15 K | 1294.47

O=C1CCCCC1 [cyclohexanone] + CC(Cl)(Cl)Cl
[1], x2 = 0
Details | mass density [kg/m3]
288.15 K | 951.69
298.15 K | 942.76
308.15 K | 933.8
318.15 K | 924.82

ClCCCCCl [1,4-dichlorobutane] + O=C1CCCCC1
mass density [kg/m3], [1]
Details | x1 = 0.1063 | x1 = 0.1969 | x1 = 0.2901 | x1 = 0.3808 | x1 = 0.4803 | x1 = 0.5814 | x1 = 0.6763 | x1 = 0.7751 | x1 = 0.8849 | x1 = 1
288.15 K | 973.11 | 991.09 | 1009.39 | 1027.04 | 1046.24 | 1065.55 | 1083.46 | 1101.96 | 1122.33 | 1143.49
298.15 K | 964 | 981.82 | 999.94 | 1017.42 | 1036.41 | 1055.52 | 1073.23 | 1091.52 | 1111.66 | 1132.57
308.15 K | 954.86 | 972.51 | 990.46 | 1007.76 | 1026.55 | 1045.46 | 1062.97 | 1081.05 | 1100.96 | 1121.61
318.15 K | 945.69 | 963.17 | 980.95 | 998.07 | 1016.66 | 1035.37 | 1052.68 | 1070.54 | 1090.21 | 1110.61

ClC(Cl)Cl [trichloromethane]
[2]
Details | mass density [kg/m3]
288.15 K | 1491.86
298.15 K | 1473.16
308.15 K | 1454.07
318.15 K | 1434.72

ClCCCCl [1,3-dichloropropane]
[2]
Details | mass density [kg/m3]
288.15 K | 1191.93
298.15 K | 1179.58
308.15 K | 1167.16
318.15 K | 1154.67

O=C1CCCCC1 [cyclohexanone] + ClCCCCCl
[1], x2 = 0
Details | mass density [kg/m3]
288.15 K | 951.69
298.15 K | 942.76
308.15 K | 933.8
318.15 K | 924.82
